Test results from ChEMBL document CHEMBL1151203, “Phelligridins C-F: cytotoxic pyrano[4,3-c][2]benzopyran-1,6-dione and furo[3,2-c]pyran-4-one derivatives from the fungus Phellinus igniarius” (J Nat Prod, 2004).

Experiments:
Assay type in all cases: functional, cell-based
A549 = experiment: Cytotoxicity against human A549 cells after 96 hrs by MTT assay; conditions: A549, 96 h
BGC-823 = experiment: Cytotoxicity against human BGC823 cells after 96 hrs by MTT assay; conditions: BGC-823, 96 h
KETR3 = experiment: Cytotoxicity against human Ketr3 cells after 96 hrs by MTT assay; conditions: KETR3, 96 h
HCT-8 = experiment: Cytotoxicity against human HCT8 cells after 96 hrs by MTT assay; conditions: HCT-8, 96 h
Bel-7402 = experiment: Cytotoxicity against human Bel7402 cells after 96 hrs by MTT assay; conditions: Bel-7402, 96 h
MCF7 = experiment: Cytotoxicity against human MCF7 cells after 96 hrs by MTT assay; conditions: MCF7, 96 h

## CC(=O)/C=C/c1ccc(O)c(O)c1
A549
  IC50: > 280 µM
BGC-823
  IC50: 243 µM
KETR3
  IC50: 0.245 µM
HCT-8
  IC50: 227 µM
Bel-7402
  IC50: 153 µM
MCF7
  IC50: 141 µM

## CC(=O)/C=C(O)/C=C/c1ccc(O)c(O)c1 [HISPOLON]
A549
  IC50: 183 µM
BGC-823
  IC50: 205 µM
KETR3
  IC50: 0.206 µM
HCT-8
  IC50: 199 µM
Bel-7402
  IC50: 38 µM
MCF7
  IC50: 25 µM

## COC1(CC(C)=O)Oc2cc(/C=C/c3ccc(O)c(O)c3)oc(=O)c2/C1=C/c1ccc(O)c(O)c1 (stereo not given) [PHELLIGRIDIN F]
A549
  IC50: 84 µM
BGC-823
  IC50: 92 µM
KETR3
  IC50: > 0.104 µM
HCT-8
  IC50: > 104 µM
Bel-7402
  IC50: 46 µM
MCF7
  IC50: 85 µM

## CC1=CC(=O)C2(O1)c1c(cc(/C=C/c3ccc(O)c(O)c3)oc1=O)OC2c1ccc(O)c(O)c1 (stereo not given) [INOSCAVIN A]
A549
  IC50: > 108 µM
BGC-823
  IC50: > 108 µM
KETR3
  IC50: > 0.108 µM
HCT-8
  IC50: > 108 µM
Bel-7402
  IC50: 88 µM
MCF7
  IC50: > 108 µM

## Cc1cc2oc(=O)c3cc(O)c(O)cc3c2c(=O)o1 [PHELLIGRIDIN A]
A549
  IC50: > 192 µM
BGC-823
  IC50: 181 µM
KETR3
  IC50: > 0.192 µM
HCT-8
  IC50: > 192 µM
Bel-7402
  IC50: 110 µM
MCF7
  IC50: 109 µM

## CC1=CC(=O)C2(O1)C(c1cc3oc(=O)c4cc(O)c(O)cc4c3c(=O)o1)=Cc1cc(O)c(O)cc12 (stereo not given) [PHELLIGRIDIN E]
A549
  IC50: 79 µM
BGC-823
  IC50: 96 µM
KETR3
  IC50: > 0.105 µM
HCT-8
  IC50: > 105 µM
Bel-7402
  IC50: 55 µM
MCF7
  IC50: 70 µM

## O=c1oc2cc(/C=C/c3ccc(O)cc3)oc(=O)c2c2cc(O)c(O)cc12 [PHELLIGRIDIN C]
A549
  IC50: 12 µM
BGC-823
  IC50: > 137 µM
KETR3
  IC50: 0.094 µM
HCT-8
  IC50: 126 µM
Bel-7402
  IC50: 10 µM
MCF7
  IC50: 72 µM

## CC[C@@]1(O)C(=O)OCc2c1cc1n(c2=O)Cc2cc3c(CN(C)C)c(O)ccc3nc2-1 [TOPOTECAN]
A549
  IC50: 3.2 µM
BGC-823
  IC50: 4.3 µM
KETR3
  IC50: 0.0049 µM
HCT-8
  IC50: 1.5 µM
Bel-7402
  IC50: 1.2 µM
MCF7
  IC50: 1.8 µM

## O=c1oc2cc(/C=C/c3ccc(O)c(O)c3)oc(=O)c2c2cc(O)c(O)cc12 [PHELLIGRIDIN D]
A549
  IC50: 16 µM
BGC-823
  IC50: > 131 µM
KETR3
  IC50: 0.09 µM
HCT-8
  IC50: 99 µM
Bel-7402
  IC50: 8 µM
MCF7
  IC50: 37 µM

## COC(=O)c1c(O)cc(/C=C/c2ccc(O)c(O)c2)oc1=O [PHELLIGRIDIN B]
A549
  IC50: > 164 µM
BGC-823
  IC50: 146 µM
KETR3
  IC50: 0.144 µM
HCT-8
  IC50: 139 µM
Bel-7402
  IC50: 50 µM
MCF7
  IC50: 143 µM
